Test results published in ChEMBL document CHEMBL1201862, “PubChem BioAssay data set” (2004).
The source made the active and inactive calls.

How the values were obtained:
[1] = cytotoxicity in L-6 rat myocytes, dose response, cytotoxicity control, cell-based, plate reader, cherry-pick (AID 651896); assay type: functional
[2] = L. donovani amastigote growth inhibition, dose response, axenic amastigotes, plate reader, cherry pick (AID 651891); assay type: functional, cell-based; settings: Leishmania donovani
[3] = intracellular Trypanosoma cruzi inhibitors in host cells – cell-based, plate reader, cherry-pick samples, set 3, dose response (AID 651818); assay type: functional;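 note: compounds incubated with infected cells for about four days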
[4] = T. b. rhodesiense proliferation inhibition, dose response, STIB900 strain, plate reader, cherry pick (AID 651893); assay type: functional, cell-based; settings: Trypanosoma brucei
[5] = P. falciparum blood-stage growth inhibition, dose response, NF54 strain, plate reader, dry powder (AID 651889); assay type: functional, cell-based
[6] = L-6 rat myoblast cytotoxicity, dose response, counter-screen for T. cruzi inhibitor project, cell-based, plate reader, dry powder (AID 651895); assay type: functional
[7] = T. cruzi growth inhibition in host cells, dose response, cell-based, plate reader, dry powder, set 2 (AID 652275); assay type: functional
[8] = growth inhibition of intracellular T. cruzi, dose response, cell-based, plate reader, dry powder samples (AID 651845); assay type: functional
[9] = T. cruzi intracellular amastigote growth inhibition, dose response, imaging, CA-I/72 strain, bovine embryo skeletal muscle, dry powder (AID 651885); assay type: functional, cell-based
[10] = L. donovani amastigote growth inhibition, dose response, axenic amastigotes, plate reader, dry powder (AID 651892); assay type: functional, cell-based
[11] = T. cruzi amastigote growth inhibition, dose response, Tulahuen strain, L-6 host cells, dry powder (AID 651890); assay type: functional, cell-based
[12] = T. b. rhodesiense proliferation inhibition, dose response, STIB900 strain, plate reader, dry powder (AID 651894); assay type: functional, cell-based
[13] = ADAM10 inhibitors, peptide cleavage, dose response, biochemical, QFRET (AID 743254);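 note: ADAM10 enzyme with the DM2 quenched FRET peptide as substrate; EDANS fluorescence gain as the protease cuts the substrate; inhibitor potency against ADAM10 proteolytic activity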
[14] = target: Disintegrin and metalloproteinase domain-containing protein 17 (Homo sapiens, UniProt P78536); assay: ADAM17 protease inhibitors, dose response, counter-screen for ADAM10 exosite inhibitor project, biochemical, quenched FRET substrate (AID 743253)
Chain of Disintegrin and metalloproteinase domain-containing protein 17 (P78536 whole entry, the tested form may be a part): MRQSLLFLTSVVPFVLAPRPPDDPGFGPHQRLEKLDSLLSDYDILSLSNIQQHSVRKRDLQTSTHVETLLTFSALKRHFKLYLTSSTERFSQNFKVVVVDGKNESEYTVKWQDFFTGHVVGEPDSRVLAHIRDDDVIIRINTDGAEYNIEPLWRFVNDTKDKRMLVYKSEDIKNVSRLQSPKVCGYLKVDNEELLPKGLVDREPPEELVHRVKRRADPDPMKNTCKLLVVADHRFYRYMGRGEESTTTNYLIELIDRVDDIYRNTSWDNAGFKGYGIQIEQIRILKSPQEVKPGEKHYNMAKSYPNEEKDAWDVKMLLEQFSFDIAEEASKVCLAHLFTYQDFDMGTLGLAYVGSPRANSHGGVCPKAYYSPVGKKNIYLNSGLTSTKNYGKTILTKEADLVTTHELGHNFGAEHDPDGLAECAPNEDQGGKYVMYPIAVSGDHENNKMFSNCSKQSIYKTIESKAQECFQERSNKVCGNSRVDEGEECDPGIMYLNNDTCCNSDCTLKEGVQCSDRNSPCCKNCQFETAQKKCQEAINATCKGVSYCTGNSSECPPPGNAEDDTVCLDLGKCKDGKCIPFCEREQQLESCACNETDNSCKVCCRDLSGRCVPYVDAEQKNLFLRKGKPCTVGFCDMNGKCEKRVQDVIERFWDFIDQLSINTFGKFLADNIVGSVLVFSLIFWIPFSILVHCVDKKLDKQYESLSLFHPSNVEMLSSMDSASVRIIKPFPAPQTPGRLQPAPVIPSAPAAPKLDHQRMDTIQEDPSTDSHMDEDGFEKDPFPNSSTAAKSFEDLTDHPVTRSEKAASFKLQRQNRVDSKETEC

[15] = CTGF mRNA reduction under YAP1 overexpression, dose response, mechanism study for YAP1 pathway inhibitor project, DLD1 cells, RT-qPCR, cherry-pick (AID 1053127); assay type: functional, cell-based; settings: DLD-1
[16] = YAP1 pathway inhibition via CTGF transcript levels, dose response, cell-based, DLD1 colon cancer, RT-qPCR, cherry-pick (AID 1053122); assay type: functional; settings: Cancer cell lines
[17] = P. falciparum Dd2 growth inhibitors, dose response, SYBR Green, cherry-picked samples (AID 1159567); assay type: functional, cell-based
[18] = inhibitors of non-replicating M. tuberculosis, dose response, luciferase, dry powder (AID 651619); assay type: functional; settings: Mycobacterium tuberculosis
[19] = inhibitors of non-replicating M. tuberculosis, dose response, luciferase, dry powder (AID 651620); assay type: functional; settings: Mycobacterium tuberculosis
[20] = growth inhibition of replicating M. tuberculosis, dose response, counter-screen, dry powder, IC90 (AID 651617); assay type: functional; settings: Mycobacterium tuberculosis
[21] = growth suppression of PTEN-null colon cells, dose response, cell-based, HCT116 PTEN knockout (AID 1047); assay type: functional;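 note: HCT116 colon tumor cells with PTEN knocked out; cells exposed to compound for 60 hours before readout; potency for loss of cell viability measured by luminescence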
[22] = growth suppression of beta-catenin-knockout colon cells, dose response, cell-based, HCT116, human colon tumor (AID 1045); assay type: functional;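 note: HCT116 colon tumor cells with beta catenin knocked out; cells exposed to compound for 60 hours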
Protein skinhead-1 = target: T1, Protein skinhead-1 (Caenorhabditis elegans, UniProt P34707); assay type: functional
T1 sequence (P34707 whole entry): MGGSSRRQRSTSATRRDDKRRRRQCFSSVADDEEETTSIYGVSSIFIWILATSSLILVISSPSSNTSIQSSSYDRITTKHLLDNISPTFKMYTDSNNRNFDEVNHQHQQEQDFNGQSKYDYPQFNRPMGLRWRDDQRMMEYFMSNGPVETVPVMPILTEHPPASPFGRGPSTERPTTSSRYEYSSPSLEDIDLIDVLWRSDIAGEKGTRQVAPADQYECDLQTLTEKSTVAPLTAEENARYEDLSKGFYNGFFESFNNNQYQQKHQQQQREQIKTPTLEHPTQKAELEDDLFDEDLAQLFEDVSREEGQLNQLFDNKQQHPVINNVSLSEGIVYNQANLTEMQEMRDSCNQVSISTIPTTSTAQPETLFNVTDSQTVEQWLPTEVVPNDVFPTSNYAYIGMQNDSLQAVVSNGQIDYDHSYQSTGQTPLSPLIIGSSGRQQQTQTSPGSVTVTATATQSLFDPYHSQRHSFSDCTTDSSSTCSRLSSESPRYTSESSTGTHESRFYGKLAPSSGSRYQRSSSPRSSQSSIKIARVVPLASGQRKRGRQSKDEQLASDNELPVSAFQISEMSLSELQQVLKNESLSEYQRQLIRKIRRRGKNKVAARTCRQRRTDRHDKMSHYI

[23] = inhibitors of PGC1a acetylation in cells, dose response, cell-based, cherry-picked samples (AID 720514); assay type: functional;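 note: potency may reflect raised or lowered acetylation signal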
[24] = target: NAD-dependent protein deacylase sirtuin-5, mitochondrial (Homo sapiens, UniProt Q9NXA8); assay: SIRT5 desuccinylase inhibitors, dose response, biochemical, fluorescence imaging, cherry-pick, set 5 (AID 720591);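 note: desuccinylation of succinyl peptide AMC substrate read as fluorescence after trypsin release; potency of inhibitors that lower fluorescence and may act on trypsin instead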
Chain of NAD-dependent protein deacylase sirtuin-5, mitochondrial (Q9NXA8 whole entry, the tested form may be a part): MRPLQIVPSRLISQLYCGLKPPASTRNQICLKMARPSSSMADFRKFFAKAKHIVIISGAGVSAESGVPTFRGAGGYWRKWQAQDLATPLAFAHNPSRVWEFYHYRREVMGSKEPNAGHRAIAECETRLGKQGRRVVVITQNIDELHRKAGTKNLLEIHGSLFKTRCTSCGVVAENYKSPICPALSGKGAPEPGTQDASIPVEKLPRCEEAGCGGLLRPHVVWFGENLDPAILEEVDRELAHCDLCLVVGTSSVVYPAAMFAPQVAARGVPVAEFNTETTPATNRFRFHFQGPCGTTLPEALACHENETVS

[25] = Fluorescence-based cell-based high throughput dose response assay for inhibitors of the interaction of nucleotide-binding oligomerization domain containing 2 (NOD2) and the receptor-interacting serine-threonine kinase 2 (RIPK2).; assay type: functional; settings: Homo sapiens
Paired box protein Pax-8 = Paired box protein Pax-8 (Homo sapiens, UniProt Q06710); assay: inhibitors of PAX8-driven TPO luciferase reporter, dose response, RMG-I cells, cherry-pick (AID 687027); assay type: functional, cell-based;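 note: luciferase reporter driven by Pax8 target thyroperoxidase promoter measured by SteadyGlo luminescence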
Chain of Paired box protein Pax-8 (Q06710 whole entry): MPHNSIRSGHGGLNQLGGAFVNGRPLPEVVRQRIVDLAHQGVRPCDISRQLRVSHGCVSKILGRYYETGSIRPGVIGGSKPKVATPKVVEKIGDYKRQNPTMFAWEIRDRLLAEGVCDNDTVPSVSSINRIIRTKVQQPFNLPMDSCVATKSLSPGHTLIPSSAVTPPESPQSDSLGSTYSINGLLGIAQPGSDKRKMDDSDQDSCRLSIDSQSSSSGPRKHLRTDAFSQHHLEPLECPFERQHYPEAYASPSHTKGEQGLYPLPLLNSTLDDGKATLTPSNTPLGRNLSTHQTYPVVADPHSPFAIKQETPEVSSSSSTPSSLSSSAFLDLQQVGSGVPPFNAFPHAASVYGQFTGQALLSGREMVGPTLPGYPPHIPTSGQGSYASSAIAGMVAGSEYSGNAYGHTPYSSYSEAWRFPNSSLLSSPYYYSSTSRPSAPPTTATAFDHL

[26] = PAX2 cell-based inhibition, dose response, selectivity assay for PAX8 inhibitor project, plate reader, dry powder samples (AID 743048); assay type: functional;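 note: HEK293 cells carrying a WT1 promoter luciferase reporter driven by expressed Pax2; potency is for inhibition of Pax2 driven reporter signal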
[27] = cytotoxicity in COV362 ovarian cancer cells, dose response, cytotoxicity control for PAX8 inhibitor project, cell-based, plate reader, dry powder, SA12 (AID 743144); assay type: functional
[28] = IOSE-T80 ovarian epithelial cell cytotoxicity, dose response, cytotoxicity control for PAX8 inhibitor project, plate reader, dry powder samples (AID 743045); assay type: functional, cell-based
[29] = A2780 ovarian cancer cell cytotoxicity, dose response, cytotoxicity control, plate reader, dry powder samples (AID 743046); assay type: functional, cell-based
[30] = NIH:OVCAR-3 ovarian cancer cell cytotoxicity, dose response, PAX8 inhibitor project, plate reader, dry powder samples (AID 743044); assay type: functional, cell-based
[31] = PAX5 activity inhibitors, dose response, selectivity assay for PAX8 inhibitor project, cell-based, plate reader, dry powder samples (AID 743047); assay type: functional;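 note: HEK293 cells carrying a Pax5 driven CD19 promoter luciferase reporter; potency of inhibitors that lower reporter luminescence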
[32] = IGROV1 ovarian cancer cell cytotoxicity, dose response, PAX8 inhibitor project, plate reader, dry powder samples (AID 743043); assay type: functional, cell-based; settings: IGROV-1
[33] = cytotoxicity in OVCAR4 cells, dose response, cytotoxicity control for PAX8 inhibitor project, cell-based, plate reader, dry powder, SA11 (AID 743150); assay type: functional; settings: OVCAR-4
[34] = cytotoxicity in COV434 cells, dose response, cytotoxicity control for PAX8 inhibitor project, cell-based, plate reader, dry powder, SA7 (AID 743145); assay type: functional
[35] = cytotoxicity in OV-90 ovarian cancer cells, dose response, PAX8 inhibitor project, cell-based, plate reader, dry powder, SA8 (AID 743149); assay type: functional
[36] = cytotoxicity dependent on PAX8, dose response, cell-based, plate reader, dry powder (AID 743049); assay type: functional
[37] = HepG2 cell cytotoxicity, dose response, cytotoxicity control, cherry-picks, set 5 (AID 1053118); assay type: functional, cell-based
[38] = HEK293 cell cytotoxicity, dose response, cytotoxicity control, cherry-picks, set 5 (AID 1053117); assay type: functional, cell-based
[39] = A549 cell cytotoxicity, dose response, cytotoxicity control, cherry-picks, 26 µM top dose (AID 1053119); assay type: functional, cell-based

With `C[C@H]1CN([C@@H](C)CO)C(=O)c2cccc(NC(=O)c3ccncc3)c2O[C@H]1CN(C)Cc1ccc(Oc2ccccc2)cc1` the IC50 [1] was 43.7 µM (inactive), the IC50 [2] was > 100 µM (inactive) and the AC50 [3] was 0.08 µM (active). The IC50 [4] was 6.15 µM (inactive), the IC50 [5] was 2.94 µM (inactive) and the IC50 [6] was 47.5 µM (inactive). The AC50 [7] was 0.0116 µM (active), the AC50 [8] was 0.0252 µM (active) and the IC50 [9] was 0.00042 µM (active). For the same compound, the IC50 [10] was > 100 µM (inactive), the IC50 [11] was 0.059 µM (active) and the IC50 [12] was 3.62 µM (inactive).
With `CCOC(=O)c1c(NC(=O)CN2C(=O)NC(C)(c3ccc(OC(F)F)cc3)C2=O)sc(C)c1C` (configuration not stated) the IC50 [13] was > 69.5 µM (inactive) and the IC50 [14] was > 69.5 µM (inactive).
With `CO[C@@H]1CN(C)C(=O)c2ccc(NC(=O)c3nc4ccccc4s3)cc2OC[C@@H](C)N(Cc2cccnc2)C[C@H]1C` the AC50 [15] was 19.6 µM (active), the AC50 [16] was 5.03 µM (active) and the AC50 [17] was 4.6 µM (active).
For `COCCSc1nnc(-c2ccccc2)o1`, the IC90 [18] was 4 µM (active), the IC90 [19] was 4 µM (active) and the IC90 [20] was 16 µM (active).
For `Cc1[nH]c2ccccc2c1C(=O)/C=C/c1ccccc1`, the EC50 [21] was 22 µM (active), the EC50 [22] was 19.2 µM (active) and the IC50 (Protein skinhead-1) was > 100 µM (inactive). The AC50 [23] was 29.8 µM (active).
With `CN(C)CCN(Cc1cccs1)S(=O)(=O)c1csc(C(N)=O)c1` the AC50 [24] was > 30 µM (inactive).
With `Cc1cccc2sc(N(CCCN(C)C)C(=O)CCS(=O)(=O)c3ccccc3)nc12` the IC50 [25] was 6.59 µM (active), the AC50 (Paired box protein Pax-8) was 6.18 µM (active) and the AC50 [26] was 35.7 µM (active). The AC50 [27] was 20.3 µM (active), the AC50 [28] was 21.8 µM (active) and the AC50 [29] was 6.9 µM (active). For the same compound, the AC50 [30] was 8.92 µM (active), the AC50 [31] was 43.1 µM (active) and the AC50 [32] was 11.5 µM (active). For the same compound, the AC50 [33] was 34.8 µM (active), the AC50 [34] was 8.43 µM (active) and the AC50 [35] was 17.1 µM (active). For the same compound, the AC50 [36] was 7.67 µM (active).
In the case of `C[C@H]1CN([C@@H](C)CO)C(=O)c2cccc(NC(=O)Nc3ccc(C(F)(F)F)cc3)c2O[C@@H]1CN(C)C(=O)Nc1cccc2ccccc12`, the AC50 [3] is reported as 4.5 µM (active), the AC50 [37] is reported as 25 µM (active) and the AC50 [38] is reported as 19.8 µM (active). The AC50 [39] was 29.7 µM (active).
